“Also recorded” adds a separate entry of the source.
Tests used:
[1] = tested on: ribosomal protein S6 phosphorylation; assay: S6 phosphorylation (P-S6) western blot in human HaCaT keratinocytes; assay type: cell-based
Protocol: (§1) FIGS. 1C-F show immunochemistry […] images of frozen skin sections taken from mice treated with the same creams as FIG. 1B.
(§2) To evaluate whether benzyl alcohol has deleterious effects on rapamycin activity, rapamycin was dissolved in benzyl alcohol (and compared with other solvents as indicated) and evaluated for its ability to block phosphorylation of ribosomal protein S6, a commonly used method to assess mTOR pathway inhibition by rapamycin, in human HaCaT and patient-derived keratinocytes. […] In the assays described below, a P-S6-specific antibody recognizes only the phosphorylated form of S6 whereas the other antibody recognizes total S6 protein (i.e., both P-S6 and unphosphorylated S6). […] The inhibition of phospho-S6 was observed by both western blot analysis of protein extracts from treated mouse skin (FIG. 1B) and by immunohistochemistry (IHC) of frozen sections prepared from treated mouse skin (FIG. 1C-F).
Next-generation mTOR inhibitors have similar effects on ribosomal protein S6-phosphoylation (p-S6) when compared to rapamycin. […] The p-S6 levels were quantified and the ratio of p-S6 to total S6 (total S6 data not shown) was graphed in FIG. 2B in similar fashion to FIG. 1.

mouse skin = assay: Gross examination of topically-treated mouse ears, flanks and footpads; assay type: in vivo; details: flanks and footpads vs untreated or placebo-treated skin, data not shown
[2] = tested on: ribosomal protein S6 phosphorylation; assay: S6 phosphorylation in mouse skin after topical formulation (western blot, IHC); assay type: in vivo; details: mouse skin including ears, topical formulation with rapamycin dissolved in benzyl alcohol; western blot and IHC
Protocol: as §1, §2

[3] = Rapamycin distribution in human explant skin after topical application (reverse-phase HPLC); assay type: in vitro ADME
Protocol: Rapamycin extracted from the indicated tissue slices was assayed by reverse-phase HPLC. The tissue surface was cleaned with isopropyl alcohol prior to sectioning to remove any residual surface material.
To test delivery of rapamycin from a formulation similar to that disclosed in Example 2, the formulation was applied to explant human skin.

What does the source list for `CO[C@H]1C[C@@H]2CC[C@@H](C)[C@@](O)(O2)C(=O)C(=O)N2CCCC[C@H]2C(=O)O[C@H]([C@H](C)C[C@@H]2CC[C@@H](O)[C@H](OC)C2)CC(=O)[C@H](C)/C=C(\C)[C@@H](O)[C@@H](OC)C(=O)[C@H](C)C[C@H](C)/C=C/C=C/C=C/1C` [rapamycin]?
effect on total S6 protein levels ([1]; rapamycin dissolved in benzyl alcohol or other solvents): little or no effect; inhibition of ribosomal protein S6 phosphorylation (P-S6) ([1]; rapamycin dissolved in benzyl alcohol, DMSO, ethanol or diglycol, FIG. 1A): efficiently inhibits; skin irritation on gross examination (mouse skin): little or no irritation; S6 phosphorylation relative to total S6 protein [2]: inhibited; net deposition of rapamycin within the skin ([3]; 16 hours after application of rapamycin formulation): > 4 % of the applied dose; rapamycin concentrations within the epidermis (and dermis) ([3]; 16 hours after topical application, formulation similar to Example 2, compared with level needed to inhibit S6 phosphorylation in cell culture): many fold higher than required for in vitro activity; also recorded: well above the IC50 value

Reference: patent publication US10172789B2, “Compositions for transdermal delivery of mTOR inhibitors” (PALVELLA THERAPEUTICS LLC, priority 2013, dated 2019)
